The data set relates to PCSK9 mRNA. The experiment in a line: PCSK9 siRNA screening in HepG2 cells (lipofectamine 2000 transfection, PCSK9 mRNA by Quantigene, normalized to GAP-DH). The format is cell-based, human. The note with it: for Mean percent remaining mRNA transcript at siRNA concentration/in cell type 30 nM/HepG2: 30 nM siRNA; for Mean percent remaining mRNA transcript at siRNA concentration/in cell type 100 nM/HepG2: 100 nM siRNA; for Mean percent remaining mRNA transcript at siRNA concentration/in cell type 3 nM/HepG2: 3 nM siRNA. The method, then:
HuH-7 cells were obtained from JCRB Cell Bank (Japanese Collection of Research Bioresources) (Shinjuku, Japan, cat. No.: JCRB0403) Cells were cultured in Dulbecco's MEM (Biochrom AG, Berlin, Germany, cat. No. F0435) supplemented to contain 10% fetal calf serum (FCS) (Biochrom AG, Berlin, Germany, cat. No. S0115), Penicillin 100 U/ml, Streptomycin 100 μg/ml (Biochrom AG, Berlin, Germany, cat. No. A2213) and 2 mM L-Glutamin (Biochrom AG, Berlin, Germany, cat. No K0282) at 37° C. in an atmosphere with 5% CO2 in a humidified incubator (Heraeus HERAcell, Kendro Laboratory Products, Langenselbold, Germany) HepG2 and HeLa cells were obtained from American Type Culture Collection (Rockville, Md., cat. No. HB-8065) and cultured in MEM (Gibco Invitrogen, Karlsruhe, Germany, cat. No. 21090-022) supplemented to contain 10% fetal calf serum (FCS) (Biochrom AG, Berlin, Germany, cat. No. S0115), Penicillin 100 U/ml, Streptomycin 100 μg/ml (Biochrom AG, Berlin, Germany, cat. No. A2213), 1× Non Essential Amino Acids (Biochrom AG, Berlin, Germany, cat. No. K-0293), and 1 mM Sodium Pyruvate (Biochrom AG, Berlin, Germany, cat. No. L-0473) at 37° C. in an atmosphere with 5% CO2 in a humidified incubator (Heraeus HERAcell, Kendro Laboratory Products, Langenselbold, Germany).
For transfection with siRNA, HuH7, HepG2, or HeLa cells were seeded at a density of 2.0×10^4 cells/well in 96-well plates and transfected directly. Transfection of siRNA (30 nM for single dose screen) was carried out with lipofectamine 2000 (Invitrogen GmbH, Karlsruhe, Germany, cat. No. 11668-019) as described by the manufacturer.
24 hours after transfection HuH7 and HepG2 cells were lysed and PCSK9 mRNA levels were quantified with the Quantigene Explore Kit (Genosprectra, Dumbarton Circle Fremont, USA, cat. No. QG-000-02) according to the protocol. PCSK9 mRNA levels were normalized to GAP-DH mRNA. For each siRNA eight individual datapoints were collected. siRNA duplexes unrelated to PCSK9 gene were used as control. The activity of a given PCSK9 specific siRNA duplex was expressed as percent PCSK9 mRNA concentration in treated cells relative to PCSK9 mRNA concentration in cells treated with the control siRNA duplex.
Tables 1b and 2b (and FIG. 6A) summarize the results and provide examples of in vitro screens in different cell lines at different doses. Silencing of PCSK9 transcript was expressed as percentage of remaining transcript at a given dose.
Very active sequences are those that have less than 60% of transcript remaining after treatment with a dose less than or equal to 100 nM. Active sequences are those that have less than 90% transcript remaining after treatment with a high dose (100 nM).

Consider 27 substances from US20120016009A1, “Optimized Methods For Delivery Of DSRNA Targeting The PCSK9 Gene” (priority 2008, published 2012).

In the oligonucleotide strings, read from the 5' end, every base follows the letter of its sugar. An asterisk marks phosphorothioate; unmarked linkages are phosphodiester. Other units and linkages are bracketed, terminal groups are in braces. A string of capitals states the bases alone. d = 2'-deoxy (DNA); r = 2'-OH (RNA)

As to “AD-9569: PCSK9 siRNA (sense rArGrCrUrCrCrUrGrCrArCrArGrUrCrCrUrCrCdT*dT; antisense rGrGrArGrGrArCrUrGrUrGrCrArGrGrArGrCrUdT*dT)”, the “Mean percent remaining mRNA transcript at siRNA concentration/in cell type 30 nM/HepG2” value is reported as 112%.
Take “AD-9570: PCSK9 siRNA (sense rCrUrGrCrCrGrGrGrCrCrCrArCrArArCrGrCrUdT*dT; antisense rArGrCrGrUrUrGrUrGrGrGrCrCrCrGrGrCrArGdT*dT)”: the “Mean percent remaining mRNA transcript at siRNA concentration/in cell type 30 nM/HepG2” value worked out at 42% and the “Mean percent remaining mRNA transcript at siRNA concentration/in cell type 100 nM/HepG2” value came to 35%.
Take “AD-9571: PCSK9 siRNA (sense rGrCrCrArGrGrUrGrCrUrGrCrCrUrGrCrUrArCdT*dT; antisense rGrUrArGrCrArGrGrCrArGrCrArCrCrUrGrGrCdT*dT)”: the “Mean percent remaining mRNA transcript at siRNA concentration/in cell type 3 nM/HepG2” value was 32% and the “Mean percent remaining mRNA transcript at siRNA concentration/in cell type 30 nM/HepG2” value came to 27%.
Turning to “AD-9572: PCSK9 siRNA (sense rCrCrArGrGrUrGrCrUrGrCrCrUrGrCrUrArCrCdT*dT; antisense rGrGrUrArGrCrArGrGrCrArGrCrArCrCrUrGrGdT*dT)”, the “Mean percent remaining mRNA transcript at siRNA concentration/in cell type 30 nM/HepG2” value is 53% and the “Mean percent remaining mRNA transcript at siRNA concentration/in cell type 100 nM/HepG2” value was 47%.
Turning to “AD-9573: PCSK9 siRNA (sense rArUrGrGrUrCrArCrCrGrArCrUrUrCrGrArGrAdT*dT; antisense rUrCrUrCrGrArArGrUrCrGrGrUrGrArCrCrArUdT*dT)”, the IC50 (in general, the concentration that inhibits the measured activity by half) was found to be 1.6 nM; the “Mean percent remaining mRNA transcript at siRNA concentration/in cell type 3 nM/HepG2” value is on record as 42%; the “Mean percent remaining mRNA transcript at siRNA concentration/in cell type 30 nM/HepG2” value turned out to be 36%.
As for “AD-9574: PCSK9 siRNA (sense rCrUrGrCrCrArArGrGrGrArArGrGrGrCrArCrGdT*dT; antisense rCrGrUrGrCrCrCrUrUrCrCrCrUrUrGrGrCrArGdT*dT)”, the “Mean percent remaining mRNA transcript at siRNA concentration/in cell type 30 nM/HepG2” value was 74%.
Take “AD-9575: PCSK9 siRNA (sense rCrCrGrCrUrGrCrCrGrGrCrArArCrUrUrCrCrGdT*dT; antisense rCrGrGrArArGrUrUrGrCrCrGrGrCrArGrCrGrGdT*dT)”: the “Mean percent remaining mRNA transcript at siRNA concentration/in cell type 30 nM/HepG2” value worked out at 120%.
Consider “AD-9576: PCSK9 siRNA (sense rGrCrArGrArGrArCrUrGrArUrCrCrArCrUrUrCdT*dT; antisense rGrArArGrUrGrGrArUrCrArGrUrCrUrCrUrGrCdT*dT)”, for which the “Mean percent remaining mRNA transcript at siRNA concentration/in cell type 30 nM/HepG2” value was 47%.
As to “AD-9577: PCSK9 siRNA (sense rCrArCrCrArArGrGrArGrGrCrArGrGrArUrUrCdT*dT; antisense rGrArArUrCrCrUrGrCrCrUrCrCrUrUrGrGrUrGdT*dT)”, the “Mean percent remaining mRNA transcript at siRNA concentration/in cell type 3 nM/HepG2” value was determined as 31% and the “Mean percent remaining mRNA transcript at siRNA concentration/in cell type 30 nM/HepG2” value turned out to be 33%.
Take “AD-9578: PCSK9 siRNA (sense rCrArUrUrUrArUrCrUrUrUrUrGrGrGrUrCrUrGdT*dT; antisense rCrArGrArCrCrCrArArArArGrArUrArArArUrGdT*dT)”: the “Mean percent remaining mRNA transcript at siRNA concentration/in cell type 30 nM/HepG2” value worked out at 61% and the “Mean percent remaining mRNA transcript at siRNA concentration/in cell type 100 nM/HepG2” value is listed as 49%.
Turning to “AD-9579: PCSK9 siRNA (sense rArUrCrGrArGrGrArGrGrArCrUrCrCrUrCrUrGdT*dT; antisense rCrArGrArGrGrArGrUrCrCrUrCrCrUrCrGrArUdT*dT)”, the “Mean percent remaining mRNA transcript at siRNA concentration/in cell type 30 nM/HepG2” value amounted to 113%.
The same measure, in the same setting: as for “AD-9580: PCSK9 siRNA (sense rCrCrUrGrCrGrCrGrUrGrCrUrCrArArCrUrGrCdT*dT; antisense rGrCrArGrUrUrGrArGrCrArCrGrCrGrCrArGrGdT*dT)”, the figure is 112%; as for “AD-9581: PCSK9 siRNA (sense rUrGrCrGrCrGrUrGrCrUrCrArArCrUrGrCrCrAdT*dT; antisense rUrGrGrCrArGrUrUrGrArGrCrArCrGrCrGrCrAdT*dT)”, 35%; as for “AD-9582: PCSK9 siRNA (sense rCrCrArGrCrArUrCrCrArCrGrCrUrUrCrCrUrGdT*dT; antisense rCrArGrGrArArGrCrGrUrGrGrArUrGrCrUrGrGdT*dT)”, 37%.
On the same count and under the same terms, next, “AD-9583: PCSK9 siRNA (sense rCrCrCrArUrGrUrCrGrArCrUrArCrArUrCrGrAdT*dT; antisense rUrCrGrArUrGrUrArGrUrCrGrArCrArUrGrGrGdT*dT)”: 42%.
As for “AD-9584: PCSK9 siRNA (sense rCrCrCrUrGrGrCrGrGrGrUrGrGrGrUrArCrArGdT*dT; antisense rCrUrGrUrArCrCrCrArCrCrCrGrCrCrArGrGrGdT*dT)”, the “Mean percent remaining mRNA transcript at siRNA concentration/in cell type 30 nM/HepG2” value was found to be 68% and the “Mean percent remaining mRNA transcript at siRNA concentration/in cell type 100 nM/HepG2” value was 52%.
Take “AD-9585: PCSK9 siRNA (sense rCrGrGrCrArArCrUrUrCrCrGrGrGrArCrGrArUdT*dT; antisense rArUrCrGrUrCrCrCrGrGrArArGrUrUrGrCrCrGdT*dT)”: the “Mean percent remaining mRNA transcript at siRNA concentration/in cell type 30 nM/HepG2” value turned out to be 83%.
In the case of “AD-9586: PCSK9 siRNA (sense rGrArCrArUrCrArUrUrGrGrUrGrCrCrUrCrCrAdT*dT; antisense rUrGrGrArGrGrCrArCrCrArArUrGrArUrGrUrCdT*dT)”, the “Mean percent remaining mRNA transcript at siRNA concentration/in cell type 30 nM/HepG2” value was determined as 104% and the “Mean percent remaining mRNA transcript at siRNA concentration/in cell type 100 nM/HepG2” value was 81%.
Consider “AD-9587: PCSK9 siRNA (sense rArCrArUrUrUrArUrCrUrUrUrUrGrGrGrUrCrUdT*dT; antisense rArGrArCrCrCrArArArArGrArUrArArArUrGrUdT*dT)”, for which the “Mean percent remaining mRNA transcript at siRNA concentration/in cell type 3 nM/HepG2” value is 49% and the “Mean percent remaining mRNA transcript at siRNA concentration/in cell type 30 nM/HepG2” value is 63%.
Regarding “AD-9588: PCSK9 siRNA (sense rGrGrUrCrArCrCrGrCrUrGrCrCrGrGrCrArArCdT*dT; antisense rGrUrUrGrCrCrGrGrCrArGrCrGrGrUrGrArCrCdT*dT)”, the “Mean percent remaining mRNA transcript at siRNA concentration/in cell type 30 nM/HepG2” value was 66%.
Take “AD-9589: PCSK9 siRNA (sense rCrArCrCrGrCrUrGrCrCrGrGrCrArArCrUrUrCdT*dT; antisense rGrArArGrUrUrGrCrCrGrGrCrArGrCrGrGrUrGdT*dT)”: the “Mean percent remaining mRNA transcript at siRNA concentration/in cell type 30 nM/HepG2” value is given as 85% and the “Mean percent remaining mRNA transcript at siRNA concentration/in cell type 100 nM/HepG2” value stood at 67%.
As to “AD-9590: PCSK9 siRNA (sense rArCrCrArArCrUrUrUrGrGrCrCrGrCrUrGrUrGdT*dT; antisense rCrArCrArGrCrGrGrCrCrArArArGrUrUrGrGrUdT*dT)”, the “Mean percent remaining mRNA transcript at siRNA concentration/in cell type 30 nM/HepG2” value amounted to 122%.
Take “AD-9591: PCSK9 siRNA (sense rArCrUrGrUrCrCrCrUrCrCrUrUrGrArGrCrArCdT*dT; antisense rGrUrGrCrUrCrArArGrGrArGrGrGrArCrArGrUdT*dT)”: the “Mean percent remaining mRNA transcript at siRNA concentration/in cell type 30 nM/HepG2” value was found to be 95% and the “Mean percent remaining mRNA transcript at siRNA concentration/in cell type 100 nM/HepG2” value worked out at 75%.
On the same counts, the results for “AD-9592: PCSK9 siRNA (sense rCrCrUrArGrArCrArCrCrArGrCrArUrArCrArGdT*dT; antisense rCrUrGrUrArUrGrCrUrGrGrUrGrUrCrUrArGrGdT*dT)” are 55% and 46%.
On to “AD-9593: PCSK9 siRNA (sense rCrArGrGrGrUrCrArUrGrGrUrCrArCrCrGrArCdT*dT; antisense rGrUrCrGrGrUrGrArCrCrArUrGrArCrCrCrUrGdT*dT)”, for which the “Mean percent remaining mRNA transcript at siRNA concentration/in cell type 30 nM/HepG2” value came out at 55%.
Consider “AD-9594: PCSK9 siRNA (sense rGrCrUrGrCrCrGrGrCrArArCrUrUrCrCrGrGrGdT*dT; antisense rCrCrCrGrGrArArGrUrUrGrCrCrGrGrCrArGrCdT*dT)”, for which the “Mean percent remaining mRNA transcript at siRNA concentration/in cell type 30 nM/HepG2” value amounted to 95% and the “Mean percent remaining mRNA transcript at siRNA concentration/in cell type 100 nM/HepG2” value is on record as 80%.
On to “AD-9595: PCSK9 siRNA (sense rCrUrGrArGrGrArCrCrArGrCrGrGrGrUrArCrUdT*dT; antisense rArGrUrArCrCrCrGrCrUrGrGrUrCrCrUrCrArGdT*dT)”, for which the “Mean percent remaining mRNA transcript at siRNA concentration/in cell type 3 nM/HepG2” value turned out to be 32% and the “Mean percent remaining mRNA transcript at siRNA concentration/in cell type 30 nM/HepG2” value amounted to 31%.
